# From patent publication US20120269725A1, “TARGETED RADIOLABELED COMPOUNDS AND THEIR USE FOR THE TREATMENT AND DIAGNOSIS OF CANCER” (priority 2009, published 2012)
# Experiments:
# [1] = system: subcutaneous LS174T tumors (human colorectal adenocarcinoma); assay: Biodistribution, clearance and planar imaging in athymic mice bearing subcutaneous LS174T xenografts; format: in vivo, athymic NCr-nu/nu mice; settings: for tumor uptake and retention, times higher than parent drug ^131IUdR: co-injected ^131IUdR
# Protocol: The in vivo properties and pharmacology of several compounds of the present invention were initially tested in athymic mice bearing subcutaneous LS174T tumors (human colorectal adenocarcinoma), which have several desirable properties such as rapid growth when implanted subcutaneously (SQ), good vascularization and the availability of considerable historical data for the parent compound IUdR. The clearance rates from blood, tumor, and associated organs were analyzed to determine the structure-pharmacokinetics relationship. The first compounds studied were 6b-fast and 6b-slow. Four-to-six-weeks old female athymic NCr-nu/nu mice (NCI-Frederic, Md., USA) were allowed to acclimate in Applicants' facility after delivery for no less than 5 days. All protocols involving animals were approved by the University of Nebraska Institutional Animal Care and Use Committee. Mice were housed in microisolator cages with free access to sterilized standard rodent diet and water. LS174T cells in 0.1 mL of serum-free medium were implanted SQ at 5×10^6 cells/mouse. One week later identification transponders were implanted, also SQ. Body weights and tumor sizes were monitored twice weekly, and approximately 10 days after the cell implant, mice were randomized for biodistribution studies.
# Each of the two isomers, 6b-fast and 6b-slow, was tested independently in separate groups of mice. The comparison to the parent compound, IUdR, was made by co-injecting ^131IUdR with a particular ^125I-labeled diastereomer. Compounds were administered intravenously (IV) via a tail vein.
# Biodistribution was conducted at 1 h, 4 h, 24 and 48 h after the administration of radiolabeled compounds (n=6 per time point). The injection doses contained approximately 1 μCi (37 kBq) ^131IUdR and 5 μCi (185 kBq) ^125I-labeled 6b-fast or 6b-slow dissolved in 0.2 mL phosphate buffered saline containing 0.1% bovine serum albumin, pH 7.2 (PBS). All syringes were weighted after loading with the compound solution and immediately after the injection to determine the weight of the injected dose. Triplicate standards of the injected dose were prepared in PBS and counted in a gamma counter just before the beginning of the experiment. The radioactive content of these standards was also determined alongside all tissues after the necropsy to correct the tissue uptake for the decay of the radioisotope. Blood, liver, spleen, heart, lungs, kidneys, brain, tumor and tail were collected during necropsy. Tissues were rinsed in ice-cold saline, patted dry and weighed. The tail was collected to validate the quality of the IV injections.
# FIG. 7 presents whole body images for a typical time course distribution (24 h, 48 h, and 72 h) of 6b administered as a diastereomeric mixture in LS174T-bearing athymic mice. The images were acquired 1, 2, and 3 days after the administration of the compound. […] It is also apparent that based on pharmacokinetics, the use of these compounds can be tailored to a specific malignancy and its anatomical location.
# IP OVCAR-3 tumors = assay: Pilot therapy of IP OVCAR-3 tumors in athymic mice; format: in vivo
# From the text: In pilot therapy experiments, the effects of unmodified ^125IUdR on the growth of IP OVCAR-3 tumors were compared to the therapeutic effects of the 6b diastereomeric mixture and 7b diastereomeric mixture. The tumor model used in this study, OVCAR-3 cell line, was established from the malignant ascites of a patient with progressive adenocarcinoma of the ovary after many types of chemotherapy including cyclophosphamide, adriamycin, and cisplatin. OVCAR-3 is resistant in vitro to clinically relevant concentrations of adriamycin, melphalan, and cisplatin (Hamilton T C, Young R C, Louie K G, Behrens B C, McKoy W M, Grotzinger K R, Ozols R F. Characterization of a xenograft model of human ovarian carcinoma which produces ascites and intraabdominal carcinomatosis in mice. Cancer Res. 1984; 44:5286-90.). In immunodeficient mice, IP injected OVCAR-3 cells produce malignant ascites, peritoneal carcinomatosis, and serosal and visceral seeding that, if left untreated, leads to death from respiratory compromise, hemorrhage from invasion of intra-abdominal blood vessels, and bowel obstruction. Substantial literature data (nearly 100 publications) confirm that this tumor model has pathogenesis and metastatic properties similar to those of human ovarian cancer.
# Mice received IP implants of approximately 2.4×10^8 OVCAR-3 cells/mouse isolated from fresh OVCAR-3 mouse ascites. Cell viability was measured before and after injection, and was ≧90%. Four days after tumor cells were implanted, the mice received SQ transponders and were randomized via a lottery into four groups: NT—untreated controls that received IP injection of PBS; 7b group—receiving IP doses of the 7b diastereomeric mixture in PBS (average 0.4 mCi/mouse (14.8 MBq)); 6b group—receiving IP doses of the 6b diastereomeric mixture in PBS (average dose 0.36 mCi/mouse (13.3 MBq)); and ^125IUdR group—receiving IP doses of ^125IUdR (average 0.43 mCi/mouse (15.9 MBq)) in PBS. Mice were monitored three times per week.
# Mice in the 6b group received 0.22 mCi (8.1 MBq) 6b diastereomeric mixture on day 27; and on day 28 mice in ^125IUdR group were treated with additional 0.2 mCi (7.4 MBq) ^125IUdR. Slight differences in the dosing schedule and the administered doses are because of the required large quantities of the compounds. For these experiments, ˜20 mCi of no-carrier added and radiochemically pure compounds were required. Each agent was purified on the analytical reversed phase HPLC column. The use of preparative columns in this case is impractical because the products are recovered in large volumes of acetonitrile-containing solvent that must be evaporated to dryness before the use in mice.
# Overall, mice in the 7b group were treated with an average of 0.58 mCi (21.5 MBq) 7b diastereomeric mixture; mice in the 6b group were treated with an average of 0.58 mCi (21.5 MBq) 6b diastereomeric mixture, and mice in the ^125IUdR group were treated with an average of 0.63 mCi (23.3 MBq) ^125IUdR.
# The therapy was terminated 7 weeks after the first dosing. Mice were sacrificed for the biodistribution study. Blood and solid tumor were taken for the evaluation of their radioactive content. The peritoneal cavity was lavaged with 2-mL aliquots of PBS, and PBS wash and ascites were collected. One mL of the ascites suspension with cancer cells was taken for gamma counting. The rest of the abdominal fluid was centrifuged and 0.5 mL of the supernatant was reserved for gamma counting. The weight of the cell pellet and the supernatant were determined.
# Two weeks after the first dose of radiolabeled compounds, the whole body radioactivity was measured to determine to what extent the additional doses of the compounds may increase the radiation burden and therefore may be detrimental to the animal health (FIG. 11B). The absolute amounts were low and ranged from […] for the 6b group to […] in the 7b group. […]
# [2] = system: U-87 human glioblastoma cells; assay: Clonogenic assay in U-87 cells; format: cell-based; settings: 24 h treatment at 0.5 to 5 μCi/mL; 100 and 500 cells/flask; monitored 7 weeks
# Protocol: U-87 cells were plated for 24 h before treatment and then treated for 24 h with concentrations of 6b fast and 6b slow ranging from 0.5 μCi/mL to 5 μCi/mL (18.5 to 185 kBq/mL). Cells were harvested, washed, and their numbers counted using a Cellometer® cell counter. Cells were diluted in fresh medium. Cells from each concentration of 6b fast and 6b slow were plated in three T25 flasks at two densities, 100 cells/flask and 500 cells/flask. Control cells were sham-treated with PBS and processed in a manner identical to cells treated with 6b. Cells were periodically examined and fresh medium was added every 5-7 days. Three weeks after plating, media was removed from the control flasks, cells were washed with 5 mL ice-cold PBS, followed by 5 mL PBS/methanol (1:1; v/v), and fixed in 5 mL methanol for 10 minutes. The methanol was discarded and flasks were left open to dry for a few hours. Crystal violet (5 mL; 0.25% in 1:1 PBS/methanol) was added to each flask to stain the cells. After approximately 10 min, the dye was removed and flasks were rinsed first with tap water followed by distilled water and were left to dry. […] This finding indicates the extraordinarily effective killing of U-87 cells by 6b.
compound,measurement,setting,value
"O=c1[nH]c(=O)n([C@H]2C[C@H](O)[C@@H](COP3(=O)OCc4ccccc4O3)O2)cc1[125I] (some centres unmarked) [Compound 6b, 5-[^125I]-Iodo-5′-O-cycloSaligenyl-2′-deoxyuridine Monophosphate]","tumor uptake and retention, times higher than parent drug ^131IUdR",[1]; 24 hours after IV administration,~14 ×
same,"tumor uptake and retention, times higher than parent drug ^131IUdR",[1]; 48 hours after IV administration,~7 ×
same,clearance of normal organs versus tumor (whole body images),"[1]; diastereomeric mixture, images 24 h, 48 h, 72 h after IV administration",normal organs such as liver clear the compound at a much faster rate than the tumor
same,"whole body retention, median",IP OVCAR-3 tumors; after 14 days,1.89 % ID
same,whole body retention,"IP OVCAR-3 tumors; after 14 days, value with spread in brackets",1.87 (0.16) % ID
same,reduction in solid tumor deposits as compared to ^125IUdR,"IP OVCAR-3 tumors; diastereomeric mixtures IP, total average 0.58 mCi, 7 weeks after first dose",~50%
same,tumor retention compared to ^125IUdR,IP OVCAR-3 tumors; necropsy 4 weeks after the boost dose,significantly higher compared to ^125IUdR
same,colony formation,[2],colonies were not formed
